Measured values from patent publication US20080226565A1, “Anticariogenic Proteins & Peptides & Saccharides” (priority 2004, published 2008).

Columns and labels:
[1] = tested on: aerobes isolated from the oral cavity; test: Susceptibility (MIC), agar dilution, aerobes from the oral cavity; assay type: cell-based, aerobic bacteria; settings: for activity against aerobes: explored range 0.2 to 3.5 mg/ml
Method: (§1) The investigations included more than hundred strains isolated from the oral cavity: : anaerobes, microaerophilic bacteria, aerobes, Streptococcus spp. and yeast like fungi. The microorganisms were isolated from saliva, mucosal membrane, gingival pockets and caries decay. The susceptibility (MIC) of bacteria and yeastlike fungi were determined by means of plate dilution technique in agar.
(§2) The investigated samples were dissolved in sterile distilled water (immediately before the experiment) to obtain the following concentrations: 3.5, 1.7, 0.8, 0.4 and 0.2 mg/ml and were added into appropriate agar. The plates were inoculated using a Steers multipoint inoculator. Inoculum contained 10^6 CFU/spot. In each experimental series, the growth of strains on the culture medium without the compounds investigated was checked. The concentration at which no macroscopic growth of the microbes was observed on the medium was regarded as the lowest concentration, inhibiting the growth of microbes (MIC). The examinations of the susceptibility of microbes to the peptides were carried out twice.
Anaerobes. The susceptibility of bacteria was determined by means of the agar dilution methods with Brucella agar supplemented with 5% defibrinated sheep's blood, menadione and hemin. Sample solutions with concentrations from of 3.5-0.2 mg/ml were added into agar. The agar plate without investigated samples was included as a bacterial growth control. The inoculum of 10^6 CFU/ml was applied to the agar plates with Steers replicator. Incubation was performed for 48 hrs at 37° C. (310° K) in anaerobic jars containing a mixture of 10% CO2, 10% H2 and 80% N2, in the presence of palladium catalyst and indicator of anaerobiosis. Microaerophilic bacteria. The susceptibility of bacteria was determined by means of the agar dilution methods with Brucella agar supplemented with 5% sheep's blood. Samples solutions with concentrations from of 3.5- 0.2 mg/ml were added into agar. The agar plate without investigated samples was included as a bacterial growth control. The inoculum of 10^6 CFU/ml was applied to the agar plates with Steers replicator. The incubation was performed at 37° C. in anaerobic jars with Campy Pak (bio Merieux) for 48 hours. Streptococcus spp. The susceptibility of bacteria was determined by means of the agar dilution methods with Mueller-Hinton agar supplemented with 5% sheep's blood. Samples solutions with concentrations from of 3.5- 0.2 mg/ml were added into agar. The agar plate without investigated samples was included as a bacterial growth control. […] The susceptibility to investigated samples was determined by means of the plate dilution technique in Mueller-Hinton agar. […] The susceptibility of fungi to investigated samples was determined by means of the plate dilution technique in Sabouraud's agar. […]

[2] = tested on: anaerobes isolated from the oral cavity; test: Susceptibility (MIC), agar dilution, anaerobes from the oral cavity; assay type: cell-based, anaerobic bacteria; settings: for activity against anaerobes: explored range 0.2 to 3.5 mg/ml
Method: as §1, §2
Anaerobes. The susceptibility of bacteria was determined by means of the agar dilution methods with Brucella agar supplemented with 5% defibrinated sheep's blood, menadione and hemin. Sample solutions with concentrations from of 3.5-0.2 mg/ml were added into agar. The agar plate without investigated samples was included as a bacterial growth control. The inoculum of 10^6 CFU/ml was applied to the agar plates with Steers replicator. Incubation was performed for 48 hrs at 37° C. (310° K) in anaerobic jars containing a mixture of 10% CO2, 10% H2 and 80% N2, in the presence of palladium catalyst and indicator of anaerobiosis. Microaerophilic bacteria. The susceptibility of bacteria was determined by means of the agar dilution methods with Brucella agar supplemented with 5% sheep's blood. Samples solutions with concentrations from of 3.5- 0.2 mg/ml were added into agar. The agar plate without investigated samples was included as a bacterial growth control. The inoculum of 10^6 CFU/ml was applied to the agar plates with Steers replicator. The incubation was performed at 37° C. in anaerobic jars with Campy Pak (bio Merieux) for 48 hours. Streptococcus spp. The susceptibility of bacteria was determined by means of the agar dilution methods with Mueller-Hinton agar supplemented with 5% sheep's blood. Samples solutions with concentrations from of 3.5- 0.2 mg/ml were added into agar. The agar plate without investigated samples was included as a bacterial growth control. The inoculum of 10^6 CFU/ml was applied to the agar plates with Steers replicator. Incubation was performed for 24 hrs at 37° C. (310° K) in anaerobic jars containing a mixture of 10% CO2 and 90% N2. Aerobes. The susceptibility to investigated samples was determined by means of the plate dilution technique in Mueller-Hinton agar. Samples solutions with concentrations from of 3.5- 0.2 mg/ml were added into agar. The agar plate without investigated samples was included as a bacterial growth control. The inoculum of 10^6 CFU/ml was applied to the agar plates with Steers replicator. Plates were incubated for 24 hrs in 37° C. under aerobic conditions. Yeast like fungi. The susceptibility of fungi to investigated samples was determined by means of the plate dilution technique in Sabouraud's agar. Samples solutions with concentrations from of 3.5- 0.2 mg/ml were added into agar. […]

[3] = Determination of the PF-value: Knoop micro hardness of tooth samples coated with product, then saliva and acetic acid (in-vitro); set-up: species or system human
Description: The capacity to protect teeth against caries can be measured with a technique well known in the art (U.S. Pat. No. 5,279,814). Demineralization with acid, decreases the hardness of the tooth surface. The hardness can be quantified indirectly by measuring the depth of penetration of a needle in the surface (measurement of micro hardness). With this procedure, so called “Knoop” method, the needle is penetrating the surface under the pressure of constant weight and leaves a mark on the surface that allows the calculation of the depth of penetration. The more the tooth is suffering from demineralization, the softer its surface will get and the larger the depth of penetration will be (Knoop F., Peters C. G., Emerson W. B., A Sensitive Pyramidal Diamond Tool for Identation Measurments, J. Res. Natn. Bur. Stand. 23, 39-61 (1939).
The procedure includes the determination of the hardness of a human tooth sample with the Knoop method. Subsequently, the tooth is treated with an experimental protecting product outside the oral cavity.
It is cleaned softly with a paper towel until the coating is invisible.
Subsequently the tooth sample is submerged in a batch of human saliva in order to simulate the conditions in the oral cavity. After removal from the saliva batch (after 30 min.) it is treated with acid over a constant time period of 30 min. at 37° C. The acid is washed away, the tooth is dried on air and the hardness is measured again. The change in hardness (delta P in μm) is obtained by comparing with the hardness of the tooth before treatment. This experiment is repeated on other tooth samples. The effect of acid on unprotected teeth is obtained by carrying out the same procedure but without the use of an experimental protecting product (delta Pa). The protecting capacity (“PF” protection factor) of an experimental protecting compound can be defined as: […]
The ability of a product to protect teeth (PF-value) is determined with the Knoop method. A tooth sample, size 3×3×3 mm is cut from a human tooth and embedded into polymerizing resin in such a way that the surface of the tooth sample appears on the surface of the (resin) cube after the resin has become solid. The surface of the tooth is mechanically polished with rotating silicon carbide abrasive paper (Struers P1200-P2400-P4000) and the micro hardness of the enamel is determined with a Knoop diamant needle (Leitz-Wetzlar;
microdurometer “Durimet”; weight 50 gr; penetration-time: 30 seconds (Collys et al., J. Dent. Res. 1990; 69: 458-462)).
The penetration leaves a mark on the tooth surface, which is related to the depth of penetration (μm) and which can be analyzed under the microscope. […] The determination of the depth of penetration is repeated six times on each of the tooth samples and the average value is calculated. In order to determine the effect of acid on the hardness of the surface, use is made of an acetic acid buffer from Merck (pH 5; 0.1N). One drop of acid is positioned on the enamel for a period of 30 minutes at 37° C. The sample is cleaned with demineralized water and dried. The hardness is measured again according to the method of Knoop. This procedure is repeated 4 times, which means that the sample has been subjected to acid for a total period of two hours.
A graph (Y: penetration depth μm; X: 5 treatment stages) can be made on the basis of 5 average values (each of them based on six measurement), one obtained before treatment with acid, and the other 4 obtained after each of the 4 treatment-stages with acid. A logaritmic regressionline is calculated.

Substance | aerobes harvested from the oral cavity that are inhibited ([1]; at 0.2 to 0.4 mg/ml, 2 from 17) [%] | anaerobes harvested from the oral cavity that are inhibited ([2]; at 0.2 to 0.4 mg/ml, 17 from 24 species) [%] | mic-value (minimum inhibitory concentration) ([2]; gram-negative anaerobes, often, incl. Prevotella nigrescens, Porphyromonas gingivalis, Fusobacterium nucleatum) [µg/mL] | PF factor ([3]; 3.6% product/water w/w, with CaCl2.2H2O and KH2PO4) | activity against aerobes [1] | activity against anaerobes [2] | PF factor ([3]; 7.8% product/water w/w) | PF factor ([3]; 1.5% product/water w/w)
Epsilon-polylysine (elys; e-polylysine) [Product 6] | 12 | 71 | ≤ 200 | 70 |  |  |  | 
casein phosphopeptide epsilon-polylysine copolymer [(CPP x elys)n] |  |  |  |  | not active | less effective | 94 | 
bisphosphonylated epsilon-polylysine [bisphosphonylated e-polylysine] |  |  |  |  | not active | good activity |  | 99
